Measurements as given in patent US20220387618A1, “METHODS OF TREATING HER2 POSITIVE BREAST CANCER WITH TUCATINIB IN COMBINATION WITH AN ANTI-HER2 ANTIBODY-DRUG CONJUGATE” (Seagen Inc., priority 2019, published 2022).

Legend:
[1] = tested on: BT-474 breast cancer cells; test: BT-474 cell line-derived (CDX) subcutaneous xenograft model; assay type: in vivo, mice; conditions: BT-474 CDX; tucatinib 50 mg/kg orally twice daily; T-DM1 10 mg/kg IV single dose; nine animals per arm
Method: Cell line-derived (CDX) BT-474 breast cancer cells were implanted subcutaneously into the flanks of female immunocompromised mice. […] Each study arm was comprised of nine animals each. Tumor volume was monitored until the designated endpoint of the study. P-values were determined by t-test analysis comparing the tucatinib/T-DM1 combination to the closest single agent arm (ref brackets). In this model, the combination of tucatinib and T-DM1 produced three complete responses and six partial responses, while tucatinib alone generated eight partial responses, and T-DM1 alone generated nine partial responses.

[2] = tested on: CTG-0708 model; test: T-DM1-resistant HER2+ patient-derived (PDX) breast cancer model CTG-0708; assay type: in vivo, mice
Method: (§1) For these experiments, two T-DM1-resistant breast cancer tumor models were selected which scored 3+ by IHC and had metastasized to the lung. Tumor fragments were implanted subcutaneously into the flanks of immunocompromised mice. […] Each study arm was comprised of eight animals each. Tumor volume was monitored until the designated endpoint of the study. P-values were determined by t-test analysis comparing the tucatinib/T-DM1 combination to the closest single agent arm (ref brackets).

[3] = tested on: CTG-0807 model; test: T-DM1-resistant HER2+ patient-derived (PDX) breast cancer model CTG-0807; assay type: in vivo, mice
Method: as §1

[4] = tested on: HER2+ mBC; test: Phase 1b open-label dose-escalation study ONT-380-004 of tucatinib combined with T-DM1; assay type: in vivo, human; conditions: PO BID in combination with T-DM1 3.6 mg/kg every 21 days
Method: For subjects in the CNS disease-expansion cohorts, trastuzumab and taxane (together or separately) might have been given at any time prior to study enrollment as part of neoadjuvant therapy, adjuvant therapy, or therapy for metastatic disease.
Fifty-seven T-DM1-naive subjects were treated (Borges 2018). […] In these 50 subjects, the median PFS was 8.2 months (95% CI: 4.8, 10.3); the clinical benefit rate (CBR; subjects with best response of complete response (CR) or partial response [PR], or stable disease [SD] for >6 months) among 48 evaluable subjects was 58% (28 subjects). Thirty-four of 50 subjects (68%) treated with the MTD had measurable disease and were evaluable for response with an objective response rate (ORR) of 47% (1 subject with CR, 15 subjects with PR 14 subjects with SD, and 4 subjects with disease progression). Among the subjects whose disease responded to treatment, the median duration of response (DOR) was 6.9 months (95% CI: 2.8, 19.8).

[5] = biological target: T1, HER2 (Homo sapiens, UniProt P04626); test: Plasma membrane-associated HER2 levels by quantitative FACS (qFACS) after tucatinib treatment; assay type: cell-based; conditions: BT-474, SK-BR-3, HCC-1419, UACC-893; tucatinib 30 nM or 100 nM; 24 hours and 48 hours
T1 construct: endogenous in cells; host or cells: SK-BR-3
T1 sequence (P04626 23-1255): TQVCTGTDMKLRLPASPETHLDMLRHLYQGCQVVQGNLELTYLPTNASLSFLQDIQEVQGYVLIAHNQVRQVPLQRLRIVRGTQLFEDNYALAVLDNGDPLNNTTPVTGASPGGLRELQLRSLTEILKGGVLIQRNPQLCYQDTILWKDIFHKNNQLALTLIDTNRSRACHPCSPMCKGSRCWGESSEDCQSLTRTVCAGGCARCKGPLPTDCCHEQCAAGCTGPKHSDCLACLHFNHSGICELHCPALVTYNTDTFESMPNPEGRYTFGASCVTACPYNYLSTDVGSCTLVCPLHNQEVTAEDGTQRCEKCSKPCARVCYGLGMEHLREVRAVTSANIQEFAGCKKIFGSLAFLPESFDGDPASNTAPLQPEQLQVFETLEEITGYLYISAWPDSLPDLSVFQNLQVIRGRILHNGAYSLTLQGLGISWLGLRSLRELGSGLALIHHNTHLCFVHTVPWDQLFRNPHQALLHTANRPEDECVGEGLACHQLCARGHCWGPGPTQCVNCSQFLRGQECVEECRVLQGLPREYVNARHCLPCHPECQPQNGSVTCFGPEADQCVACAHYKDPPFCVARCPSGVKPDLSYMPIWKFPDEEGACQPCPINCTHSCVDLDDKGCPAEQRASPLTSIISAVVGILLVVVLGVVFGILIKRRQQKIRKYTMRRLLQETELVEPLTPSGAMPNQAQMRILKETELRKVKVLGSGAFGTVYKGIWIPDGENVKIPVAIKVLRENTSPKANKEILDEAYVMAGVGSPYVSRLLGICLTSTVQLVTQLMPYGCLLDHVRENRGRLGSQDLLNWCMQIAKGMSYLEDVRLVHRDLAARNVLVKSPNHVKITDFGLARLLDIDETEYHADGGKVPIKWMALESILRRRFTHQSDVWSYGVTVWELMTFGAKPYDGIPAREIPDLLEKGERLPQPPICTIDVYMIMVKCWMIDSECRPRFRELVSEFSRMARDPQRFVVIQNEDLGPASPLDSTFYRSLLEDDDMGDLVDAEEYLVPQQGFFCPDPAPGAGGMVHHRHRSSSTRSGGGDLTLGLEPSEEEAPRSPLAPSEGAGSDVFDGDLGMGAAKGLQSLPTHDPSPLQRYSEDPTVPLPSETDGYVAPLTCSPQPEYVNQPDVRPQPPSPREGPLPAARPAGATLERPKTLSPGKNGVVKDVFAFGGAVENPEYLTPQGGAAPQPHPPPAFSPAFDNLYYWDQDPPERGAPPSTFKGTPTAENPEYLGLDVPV
Method: (§2) To assess changes to HER2 protein levels upon treatment with tucatinib, HER2-amplified breast cancer cell lines were analyzed by Western blot and quantitative FACS (qFACS). HER2 protein levels were determined for BT-474, SK-BR-3, HCC-1419, and UACC-893 after treatment with tucatinib at either 30 nM or 100 nM doses, for the duration of 24 hours and 48 hours.
Cell surface levels of HER2 were determined for BT-474, SK-BR-3, HCC-1419, and UACC-893 after treatment with tucatinib at either 30 nM or 100 nM doses, for the duration of 24 hours and 48 hours. Plasma membrane-associated levels of HER2 were determined by quantitative FACS (qFACS) analysis after exclusion of dead cells. In all four cell lines tested, HER2 levels at the cell surface increased after treatment with tucatinib.

[6] = biological target: P-gp (Homo sapiens, UniProt P08183); conditions: concomitant use with digoxin; cited from earlier work
Sequence of P-gp (P08183 whole entry): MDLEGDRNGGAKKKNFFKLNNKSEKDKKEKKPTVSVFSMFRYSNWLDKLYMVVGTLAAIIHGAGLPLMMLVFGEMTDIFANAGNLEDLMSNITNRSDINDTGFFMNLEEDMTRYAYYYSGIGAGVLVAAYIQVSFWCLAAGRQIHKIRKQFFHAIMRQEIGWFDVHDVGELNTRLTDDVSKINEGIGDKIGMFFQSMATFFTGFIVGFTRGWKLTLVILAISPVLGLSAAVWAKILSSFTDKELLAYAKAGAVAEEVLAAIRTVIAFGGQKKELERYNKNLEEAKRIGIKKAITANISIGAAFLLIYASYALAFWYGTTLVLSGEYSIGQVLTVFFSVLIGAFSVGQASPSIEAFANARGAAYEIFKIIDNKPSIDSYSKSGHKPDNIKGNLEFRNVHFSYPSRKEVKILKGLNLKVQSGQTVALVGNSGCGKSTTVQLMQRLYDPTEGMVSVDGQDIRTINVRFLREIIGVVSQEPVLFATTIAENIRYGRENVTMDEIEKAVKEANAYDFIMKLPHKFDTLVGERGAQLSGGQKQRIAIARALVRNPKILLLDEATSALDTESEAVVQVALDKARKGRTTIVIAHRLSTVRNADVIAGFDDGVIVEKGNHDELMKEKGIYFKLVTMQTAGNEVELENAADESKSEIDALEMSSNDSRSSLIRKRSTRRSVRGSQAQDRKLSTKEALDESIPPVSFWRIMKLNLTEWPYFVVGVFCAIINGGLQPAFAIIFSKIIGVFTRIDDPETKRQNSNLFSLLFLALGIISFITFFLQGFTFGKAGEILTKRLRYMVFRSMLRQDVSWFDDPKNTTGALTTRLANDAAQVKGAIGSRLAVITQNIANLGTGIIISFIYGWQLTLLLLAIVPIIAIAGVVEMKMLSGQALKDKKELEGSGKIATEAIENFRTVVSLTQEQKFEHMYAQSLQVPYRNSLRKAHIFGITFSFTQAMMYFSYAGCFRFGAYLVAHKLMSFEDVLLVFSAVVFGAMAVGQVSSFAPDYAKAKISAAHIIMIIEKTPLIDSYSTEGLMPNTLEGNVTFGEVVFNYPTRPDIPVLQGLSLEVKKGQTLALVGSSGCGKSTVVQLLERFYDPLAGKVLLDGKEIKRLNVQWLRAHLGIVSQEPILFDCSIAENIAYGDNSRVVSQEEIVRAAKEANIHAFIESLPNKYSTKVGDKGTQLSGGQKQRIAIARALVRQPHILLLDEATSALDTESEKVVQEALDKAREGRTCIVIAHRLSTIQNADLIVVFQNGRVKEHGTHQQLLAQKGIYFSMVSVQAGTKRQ

[7] = biological target: T1, HER2; test: HER2 total protein levels by western blotting (WES system) after tucatinib treatment; assay type: cell-based; conditions: BT-474, SK-BR-3, HCC-1419, UACC-893; tucatinib 30 nM or 100 nM; 24 hours and 48 hours
Method: as §2
HER2 protein levels were determined for BT-474, SK-BR-3, HCC-1419, and UACC-893 after treatment with tucatinib at either 30 nM or 100 nM doses, for the duration of 24 hours and 48 hours. Protein lysates were generated from cells harvested at each timepoint. HER2 total protein levels were determined by western blotting using a WES™ system, and normalized against GAPDH levels as a loading control. In all four cell lines tested, HER2 total protein levels increased after treatment with tucatinib.

[8] = biological target: T1, HER2; test: HER2 internalization assays with fluorescently-labeled trastuzumab (AF488, QF) in SK-BR-3 cells; assay type: cell-based; conditions: tucatinib 100 nM
Method: To probe the dynamics of HER2 at the cell surface upon binding to antibody therapeutics, HER2 internalization assays were conducted over the course of 72 hours. […] FIGS. 10A and 10B show the dynamics of HER2 at the cell surface upon binding to antibody therapeutics.
To probe the dynamics of HER2 at the cell surface upon binding to antibody therapeutics in the presence or absence of tucatinib (100 nM), SK-BR-3 cells were incubated with fluorescently-labeled trastuzumab to mark HER2 at the cell surface as shown in FIGS. 10A and 10B. Excess antibody was washed out. Cells were imaged at time points spanning 72 hours to observe internalization of surface-bound antibody. Concurrent experiments were conducted with trastuzumab labeled with QF […], a quenched fluor which fluoresces upon lysosomal processing and can serve as a proxy for antibody catabolism.

[9] = CTG-0708 PDX, tucatinib 50 mg/kg orally twice daily, T-DM1 10 mg/kg IV single dose, eight animals per arm
[10] = CTG-0807 PDX, tucatinib 50 mg/kg orally twice daily, T-DM1 10 mg/kg IV single dose, eight animals per arm

Row | Compound | partial responses [1] | complete responses [2, 9] | partial responses [2, 9] | complete responses [3, 10] | partial responses [3, 10] | maximum-tolerated dose (MTD) of tucatinib [4] [mg] | tumor growth / tumor control ([2]; T-DM1 resistant PDX model CTG-0708) | tumor growth / tumor control ([3]; T-DM1 resistant PDX model CTG-0807) | HER2 levels at the cell surface [5] | effect on digoxin concentrations (drug interaction) [6] | HER2 total protein levels (normalized against GAPDH) [7] | dwell time of HER2 at the cell surface ([8]; initial effect) | internalization and lysosomal processing of HER2 bound to trastuzumab ([8]; later timepoints, up to 72 hours)
1 | ado-trastuzumab emtansine [T-DM1, reference compound] | nine | no partial or complete responses | no partial or complete responses | no partial or complete responses | no partial or complete responses |  |  |  |  |  |  |  | 
2 | Cc1cc(Nc2ncnc3ccc(NC4=NC(C)(C)CO4)cc23)ccc1Oc1ccn2ncnc2c1 [tucatinib] | eight |  | two |  | 6 | 300 | inhibited tumor growth | inhibited tumor growth | increased | increases digoxin concentrations | increased | increased the dwell time of HER2 at the cell surface | HER2 bound to trastuzumab was internalized and directed towards lysosomes
